According to patent US10676468B2, “N-(3-heteroarylaryl)-4-arylarylcarboxamides and analogs as hedgehog pathway inhibitors and use thereof” (IMPACT Therapeutics, Inc., priority 2012, dated 2020):

Experiments:
[1] = test system: Hedgehog Signaling Pathway; test: SAG-induced differentiation of C3H10T1/2 cells into osteoblastic cells, intracellular alkaline phosphatase activity; type: cell-based, mouse; details: Mus musculus, C3H 10T1/2, 120 h, 1 μM SAG, 5 days, alkaline phosphatase activity (OD405), read-out: IC50 values of compounds that inhibit Hh pathway
Description: (§1) The Application of SAG to Induce Pluripotent Mesenchymal Mouse Embryonic Cell C3H/10T1/2 to Differentiate into Osteoblastic Cells for the Determination of the Inhibitory Activity of N-(3-(1H-benzo[d]imidazol-2-yl)-4-chlorophenyl)-2-methyl-4-((2S,6R)-2,6-dimethylmorpholino)benzamide and Analogs on Hedgehog Signaling Pathway
The intracellular alkaline phosphatase activity is a reliable indication of the differentiation process. Therefore this enzymatic activity can be used to monitor the activity of hedgehog pathway inhibitors.
The C3H10T1/2 cells were grown in DMEM medium supplemented with 10% fetal bovine serum (FBS, Hyclone) at 37° C. with 5% CO2. 10000 cells were sown to each well of a 96-well microplate a day before the experiment and grown overnight. At the day of experiment, the inducing medium and inhibitor solutions were prepared as follows: the reference compound and testing compounds were serially diluted 1 to 3 and 1 to 10 in DMSO to seven concentrations with the eighth concentration being DMSO. A 10-fold dilution was prepared by mixing 10 μL of the DMSO dilution with 90 μL of fresh growing medium. […] Pre-sown cells were taken out from incubator and the medium was removed. To each well, 180 μL inducing medium was added and followed immediately with 20 μL of testing or reference compound dilutions. The testing compound concentrations are between 10 μM and 1 nM. The cells were then return to CO2 incubator to grow additional 5 days at 37° C.
(§2) After incubating for 5 days, the cells were taken out and intracellular alkaline phosphatase activity was tested. The alkaline phosphatase activity was measured as follows:
1) Preparation of Substrate Solution:
(§3) Solution A: A 0.5 mM MgCl2 (Sigma Prod. No. M-0250) solution was prepared.
(§4) After the pH value was adjusted to 9.8 with 5 M HCl at 37° C., the total volume was adjusted to 100 mL.
(§5) After it is completely dissolved the total volume was adjusted to 10 mL with the final concentration being 1 mM.
Substrate reaction medium: To 10 mL of solution B, 250 μL of solution A and 200 μL of solution C were added, and mixed well.
2) the Measurement of Intracellular Alkaline Phosphatase Activity:
(§6) After taking out the cells from the incubator, the cell culture medium was removed and cells were washed twice with PBS. 20 μL of lysis solution (0.2% Triton solution) was added to each well. After being shaken for 30 min at room temperature, each well of cells received 80 μL of substrate reaction medium. The microplate was placed immediately into a VariSkan Flashplate reader and absorbance at OD405 was read as background reading. The plate was replaced back to cell culture incubator at 37° C. for additional 30 min and the absorbance was read again using VariSkan Flash plate reader at OD405.
(§7) The data were analyzed by subtracting the background reading from the reading at 30 min, and the obtained numbers were plotted and analyzed with Prism 5 software (GraphPad). The phosphatase activity (calculated OD405) was plotted against the log concentration of testing compound, and the obtained plot was fitted with non-linear curve fitting equation to calculate IC50 values. The curve fitting equation is Y=Bottom+(Top−Bottom)/(1+10^((X−Log IC50))). X is the logarithm of concentration. Y is the measure of alkaline phosphatase activity (OD405).
(§8) The calculated IC50 value is a measurement of the inhibitory activity of compound to Hh pathway.

[2] = test system: Hedgehog Signaling Pathway; test: SHH-induced differentiation of C3H10T1/2 cells into osteoblastic cells, intracellular alkaline phosphatase activity; type: cell-based, mouse; details: Mus musculus, C3H 10T1/2, 120 h, 10 nM SHH-N, 5 days, alkaline phosphatase activity (OD405), read-out: IC50 values of compounds that inhibit Hh pathway
Protocol: as §1, with “SHH” for “SAG”, “C3H10T1/2” for “C3H/10T1/2”
The C3H10T1/2 cells were grown in DMEM medium supplemented with 10% fetal bovine serum (FBS, Hyclone) at 37° C. with 5% CO2. 10000 cells were sown to each well of a 96-well microplate a day before the experiment and grown overnight. […] The reference compound and testing compounds were serially diluted 1 to 3 and 1 to 10 in DMSO to seven concentrations with the eighth concentration being DMSO. A 10-fold dilution was prepared by mixing 10 μL of the DMSO dilutions with 90 μL of fresh growing medium. Pre-sown cells were taken out from incubator and the medium was removed. To each well, 180 μL of inducing medium containing 10 nM of SHH-N was added and followed immediately with 20 μL of 10× testing or reference compound dilutions. The testing compound concentrations are between 10 μM and 10 nM. The cells were then returned to CO2 incubator to grow additional 5 days at 37° C.
as §2
3) Preparation of Substrate Solution:
as §3, §4, §5
Substrate reaction medium: to 10 mL of solution B, 250 μL of solution A and 200 μL of solution C were added, and mixed well.
4) The Measurement of Intracellular Alkaline Phosphatase Activity:
as §6
as §7, with “Y=Bottom+(Top−Bottom)/(1+10^(X−Log IC50)).” for “Y=Bottom+(Top−Bottom)/(1+10^((X−Log IC50))).”
as §8

Structure (SMILES) | IC50 [1] [nM] | IC50 [2] [nM]
Cc1ccc(NC(=O)c2ccc(N3C[C@@H](C)N(C)[C@@H](C)C3)cc2Cl)cc1-c1nc2ccccc2[nH]1 [Example 102, N-(3-(1H-benzo[d]imidazol-2-yl)-4-methylphenyl)-2-chloro-4-((3S,5R)-3,4,5-trimethylpiperazin-1-yl)benzamide] | 47 | 3.9
Cc1cc(-c2cccnc2)ccc1C(=O)Nc1ccc(Cl)c(-c2nc3ccccc3[nH]2)c1 [Example 40, N-(3-(1H-benzo[d]imidazol-2-yl)-4-chlorophenyl)-2-methyl-4-(pyridin-3-yl)benzamide] | 27 | 13
O=C(Nc1ccc(Cl)c(-c2nc3ccccc3[nH]2)c1)c1ccc(-c2ccccc2)cc1 [Example 23, N-(3-(1H-benzo[d]imidazol-2-yl)-4-chlorophenyl) biphenyl-4-carboxamide] | 163 | 24
Cc1cc(-c2ccc(C(F)(F)F)cc2)ccc1C(=O)Nc1cc(-c2nc3ccccc3[nH]2)ccn1 [Example 61, N-(4-(1H-benzo[d]imidazol-2-yl)pyridin-2-yl)-3-methyl-4′-(trifluoromethyl)biphenyl-4-carboxamide] | > 10000 | > 10000
Cc1cc(-c2ccc(C(F)(F)F)cc2)ccc1C(=O)Nc1cc(-c2nc3ccccc3[nH]2)cc(C(F)(F)F)c1 [Example 62, N-(3-(1H-benzo[d]imidazol-2-yl)-5-(trifluoromethyl)phenyl)-3-methyl-4′-(trifluoromethyl)biphenyl-4-carboxamide] | > 10000 | 409
Cc1cc(-c2cccc(C#N)c2)ccc1C(=O)Nc1ccc(Cl)c(-c2nc3ccccc3[nH]2)c1 [Example 11, N-(3-(1H-benzo[d]imidazol-2-yl)-4-chlorophenyl)-3-methyl-3′-cyanobiphenyl-4-carboxamide] | 31 | 1.7
O=C1c2ccc(-c3ccc(C(F)(F)F)cc3)cc2OCN1c1ccc(Cl)c(-c2nc3ccccc3[nH]2)c1 [Example 28, 3-(3-(1H-benzo[d]imidazol-2-yl)-4-chlorophenyl)-7-(4-(trifluoromethyl)phenyl)-2H-benzo[e][1,3]oxazin-4(3H)-one] | 228 | 59
O=C(Nc1ccc(Cl)c(-c2nc3ccccc3[nH]2)c1)c1ccc(-c2ccc(C(F)(F)F)cc2)cc1F [Example 17, N-(3-(1H-benzo[d]imidazol-2-yl)-4-chlorophenyl)-3-fluoro-4′-(trifluoromethyl)biphenyl-4-carboxamide] | 81 | 15
Cc1cc(N2CCNCC2)ccc1C(=O)Nc1ccc(Cl)c(-c2nc3ccccc3[nH]2)c1 [Example 108, N-(3-(1H-benzo[d]imidazol-2-yl)-4-chlorophenyl)-2-methyl-4-(piperazin-1-yl)benzamide] | 698 | 76
Cc1cc(-c2ccc(N)cc2)ccc1C(=O)Nc1ccc(Cl)c(-c2nc3ccccc3[nH]2)c1 [Example 24, N-(3-(1H-benzo[d]imidazol-2-yl)-4-chlorophenyl)-3-methyl-4′-aminobiphenyl-4-carboxamide] | 255 | 62
O=c1c2ccc(-c3ccc(C(F)(F)F)cc3)cc2ncn1-c1ccc(Cl)c(-c2nc3ccccc3[nH]2)c1 [Example 27, 3-(3-(1H-benzo[d]imidazol-2-yl)-4-chlorophenyl)-7-(4-(trifluoromethyl)phenyl)quinazolin-4(3H)-one] | 151 | 57
Cc1cc(-c2ccc(C(F)(F)F)cc2)ccc1C(=O)Nc1ccc(Br)c(-c2nc3ccccc3[nH]2)c1 [Example 75, N-(3-(1H-benzo[d]imidazol-2-yl)-4-bromophenyl)-3-methyl-4′-(trifluoromethyl)biphenyl-4-carboxamide] | 17 | 2.9
O=c1[nH]c2cc(-c3ccc(C(F)(F)F)cc3)ccc2c(=O)n1-c1ccc(Cl)c(-c2nc3ccccc3[nH]2)c1 [Example 26, 3-(3-(1H-benzo[d]imidazol-2-yl)-4-chlorophenyl)-7-(4-(trifluoromethyl)phenyl)quinazoline-2,4(1H,3H)-dione] | > 10000 | > 10000
Cc1cc(-c2ccc(C(F)(F)F)cc2)ccc1C(=O)Nc1cccc(-c2nc3ccccn3n2)c1 [Example 73, N-(3-([1,2,4]triazolo[1,5-a]pyridin-2-yl)phenyl)-3-methyl-4′-(trifluoromethyl)biphenyl-4-carboxamide] | 163 | 134
Cc1cc(-c2ccc(C(F)(F)F)cc2)ccc1C(=O)Nc1ccc(Cl)c(-c2nnc3ncccn23)c1 [Example 53, N-(3-([1,2,4]triazolo[4,3-a]pyrimidin-3-yl)-4-chlorophenyl)-3-methyl-4′-(trifluoromethyl)biphenyl-4-carboxamide] | > 10000 | > 10000
C[C@@H]1CN(c2ccc(C(=O)Nc3cccc(-c4cn5cccnc5n4)c3)cn2)C[C@H](C)O1 [Example 57, N-(3-(imidazo[1,2-a]pyrimidin-2-yl)phenyl)-6-((2S,6R)-2,6-dimethylmorpholino)nicotinamide] | > 10000 | > 10000
Cc1cc(-c2ccc(C(F)(F)F)cc2)ccc1C(=O)N(C)c1ccc(Cl)c(-c2nc3ccccc3[nH]2)c1 [Example 48, N-(3-(1H-benzo[d]imidazol-2-yl)-4-chlorophenyl)-N,3-dimethyl-4′-(trifluoromethyl)biphenyl-4-carboxamide] | > 10000 | > 10000
Cc1cc(-c2ccc(C(F)(F)F)cc2)ccc1C(=O)Nc1ccc(Cl)c(-c2nnc3ccccn23)c1 [Example 52, N-(3-([1,2,4]triazolo[4,3-a]pyridin-3-yl)-4-chlorophenyl)-3-methyl-4′-(trifluoromethyl)biphenyl-4-carboxamide] | 740 | 465
O=C(Nc1ccc(Cl)c(-c2nc3ccccc3[nH]2)c1)c1ccc(-c2cccc(F)c2)cc1 [Example 13, N-(3-(1H-benzo[d]imidazol-2-yl)-4-chlorophenyl)-3′-fluorobiphenyl-4-carboxamide] | 86 | 14.6
Cc1cc(C(=O)Nc2ccc(Cl)c(-c3nc4ccccc4[nH]3)c2)cnc1N1C[C@@H](C)O[C@@H](C)C1 [Example 37, N-(3-(1H-benzo[d]imidazol-2-yl)-4-chlorophenyl)-5-methyl-6-((2S,6R)-2,6-dimethylmorpholino)nicotinamide] | 167 | 52
